Data taken from the NIST ThermoML archive (doi:10.1016/j.fluid.2014.01.004).
Numbers after ± are expanded uncertainties.

Assays:
[1] = Molar enthalpy of transition or fusion; conditions: DSC
[2] = DTA

Row | Molar enthalpy of transition or fusion ([1]; Crystal 2) | Triple point temperature ([2]; Crystal 1) | Triple point temperature ([2]; Crystal 2) | Molar enthalpy of transition or fusion ([1]; Crystal) | Triple point temperature ([2]; Crystal) | SMILES
1 | 10.5 ± 0.43 kcal/mol | 328.13 ± 0.48 K | 327.65 ± 0.48 K |  |  | CCCCCCCCCCCCCC(=O)O [tetradecanoic acid]
2 |  |  |  | 12.7 ± 0.574 kcal/mol | 336.34 ± 0.63 K | CCCCCCCCCCCCCCCC(=O)O [hexadecanoic acid]
3 | 8.51 ± 0.335 kcal/mol | 318.29 ± 0.41 K | 317.9 ± 0.6 K |  |  | CCCCCCCCCCCC(=O)O [dodecanoic acid]

Further lines, the compound ahead of its results:

Row | SMILES | Molar enthalpy of transition or fusion ([1]; Crystal 2) | Triple point temperature ([2]; Crystal 1) | Triple point temperature ([2]; Crystal 2) | Molar enthalpy of transition or fusion ([1]; Crystal) | Triple point temperature ([2]; Crystal)
4 | CCCCCCCCCCCCCCCCCCO [1-octadecanol] | 15.6 ± 0.908 kcal/mol | 331.82 ± 0.49 K | 330.97 ± 0.39 K |  | 
5 | CCCCCCCCCCCCCCCCO [1-hexadecanol] | 13.5 ± 0.765 kcal/mol | 323.17 ± 0.41 K | 322.27 ± 0.49 K |  | 
6 | CCCCCCCCCCCCCCO [1-tetradecanol] | 11.4 ± 0.526 kcal/mol | 311.39 ± 0.39 K | 310.45 ± 0.41 K |  | 
